From US5112754A, “Tissue plasminogen-activating factor and nonoclonal antibody” (Snow Brand Milk Products Co., Ltd., priority 1985, dated 1992)
“And” between values parts separate entries of the source, which are not always exact repeats. Identical values can stand only once. Where a SMILES comes first, the peptide text is derived from it. [ ]: non-standard residue; d: D form. The star is where a group is joined. pNA = O=[N+]([O-])c1ccc(N*)cc1

Legend:
Format in all cases: biochemical
[1] = target: T1, New type of plasminogen activator (non-urokinase tissue type, IMR-90 t-PA) produced by fibroblasts derived from human fetal lung tissue (Homo sapiens, UniProt P00750); assay: Km and Vmax for synthetic substrate S-2288, new type of plasminogen activator
T1 construct: Normal fibroblasts of strain IMR-90 (ATCC, CCL-186) derived from human fetal lung tissue were cultured in a serum-free medium; endogenous in cells; host or cells: IMR-90 (ATCC CCL-186) normal human fetal lung fibroblasts; protein purified from the serum-free culture medium

[2] = target: Urokinase (high-molecular type) (Homo sapiens, UniProt P00749); assay: Km for synthetic substrate S-2288, urokinase high-molecular type; settings: for comparison
[3] = target: Urokinase (low-molecular type) (Homo sapiens, UniProt P00749); assay: Vmax for synthetic substrate S-2288, urokinase low-molecular type; settings: for comparison

T1 sequence (P00750 36-562): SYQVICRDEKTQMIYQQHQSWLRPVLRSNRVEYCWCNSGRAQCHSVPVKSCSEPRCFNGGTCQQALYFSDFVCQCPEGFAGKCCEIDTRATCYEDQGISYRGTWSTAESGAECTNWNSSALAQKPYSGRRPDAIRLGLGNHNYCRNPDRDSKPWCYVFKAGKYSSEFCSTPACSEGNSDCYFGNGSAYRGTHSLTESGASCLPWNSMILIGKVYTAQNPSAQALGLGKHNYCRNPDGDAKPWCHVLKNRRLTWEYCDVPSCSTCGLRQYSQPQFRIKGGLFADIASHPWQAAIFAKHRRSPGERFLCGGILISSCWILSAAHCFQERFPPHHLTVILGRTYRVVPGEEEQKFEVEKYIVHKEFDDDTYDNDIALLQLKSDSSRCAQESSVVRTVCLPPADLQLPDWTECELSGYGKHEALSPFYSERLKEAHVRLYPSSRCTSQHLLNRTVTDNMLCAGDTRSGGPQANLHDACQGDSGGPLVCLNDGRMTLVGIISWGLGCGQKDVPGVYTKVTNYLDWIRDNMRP

CC[C@@H](C)[C@@H](N)C(=O)N1CCC[C@H]1C(=O)N[C@@H](CCCNC(=N)N)C(=O)Nc1ccc([N+](=O)[O-])cc1 [S-2288, H.D.Ile-Pro-Arg-pNa.2HCl] (H-[dI]-Pro-Arg-pNA)
Km ([1]; purified new type of plasminogen activator): 1160 µM and ~1160 µM | Vmax for substrate S-2288 ([1]; purified new type of plasminogen activator, Table 1): 1.7 × 10^-8 mol/min-unit | Vmax for substrate S-2288 ([1]; purified plasminogen activator, unit as printed in running text b36): about 1.7×10^-8 mol/liter | Km [2]: 500 µM | Vmax for substrate S-2288 [3]: 5 × 10^-10 mol/min-unit
